Results from paper PMC11231141, “Ube3a unsilencer for the potential treatment of Angelman syndrome” (Nature Communications, 2024).

How the values were obtained:
paternal UBE3A-YFP = paternal UBE3A-YFP unsilencing, high-content imaging in mouse primary neurons (Ube3a m+/pYFP); format: cell-based; details: for Emax / EC50: Mus musculus, 72 h, mean ± SEM; for Emax: Neuron, highest concentration with at least 90% neurons alive, read-out: EMAX (% patUBE3A-YFP+); for EC50: Primary neuron, n = 3; for capability to unsilence paternal Ube3a (analog test): mouse primary neurons, up to 5 μM
Protocol: We aimed to identify novel unsilencers of paternal Ube3a by employing a previously developed high-content small molecule screen. This screen was performed in primary neurons derived from knock-in mice harboring a yellow fluorescent protein (YFP) fused to the paternal allele of Ube3a[25], allowing for fluorescence-based identification of the paternal allele-specific expression of UBE3A-YFP (detected by a GFP antibody enhancement) (Fig. 1a and Supplementary Table 1). We screened >2800 compounds from a Pfizer chemogenetic library, which contains small molecules selected to cover a broad spectrum of pharmacological space. We screened small molecules at 1 μM concentration and used 0.3 μM topotecan, a topoisomerase inhibitor that can downregulate the Ube3a-ATS and unsilence the paternal Ube3a, as a positive control (Fig. 1b)[10]. Small molecules that increase the UBE3A-YFP signal represent putative paternal Ube3a unsilencers.
(§1) Immunofluorescence for high-content imaging analysis was performed as previously described with slight modifications. Following drug treatment at DIV7, primary neurons were fixed at DIV10 with 4% paraformaldehyde in PBS at room temperature (RT) for 10 min. After three brief washes in PBS, neurons were permeabilized with PBS/1% Triton-X-100 at RT for 10 min, followed by blocking with PBS including 5% normal goat serum and 0.2% Triton-X-100 (NGST) at RT. […] All acquired images were analyzed by CellProfiler[48]. The mean GFP signal from each drug-treated well was normalized to the average mean GFP signal from DMSO-treated neurons. […] Fluorescent images were acquired using a Nikon Ti2 eclipse fluorescence microscope (Nikon Instruments Inc.) and analyzed using Nikon NIS-Elements software (Nikon Instruments Inc.). Antibody-enhanced UBE3A-YFP fluorescence intensities were determined from DAPI and NeuN double-positive neurons in drug-treated wells and normalized to neurons in DMSO-treated wells. The cytotoxicity of a compound was determined by calculating the percentage of neurons (DAPI and NeuN double-positive cells) alive in drug-treated wells compared to the DMSO-treated wells. For determining the effectiveness of unsilencing, the percent neurons expressing GFP signal in neurons (DAPI and NeuN double-positive cells) in drug-treated wells was thresholded such that the percent GFP positive neurons in DMSO-treated wells was set to ~5%. Concentrations where more than 10% of neurons were dead compared to DMSO-treated wells were manually removed and the last included data point was set as a maximum efficacy. Sigmoidal curve fitting for the dose-response analysis was performed using GraphPad Prism software version 8.0 (GraphPad Software).

[1] = cytotoxicity (% viable DAPI/NeuN neurons vs DMSO) in mouse primary neurons; format: cell-based; details: primary cortical neurons from E15.5 mouse embryos, mean ± SEM, n = 3
Protocol: as §1

Ube3a-ATS = assay: quantitative RT-PCR of Ube3a-ATS in Ube3a m-/p+ primary neurons; format: cell-based, mouse; details: 72 h at DIV7, 0.3 µM topotecan, 1 µM (S)- or (R)-PHA533533, 0.1 µM 2, 0.1 µM 3, 0.3 µM (±)-4, 5 µM (S,R)-5
Protocol: Next, 1 ml of Neurobasal Plus medium (A3582901, ThermoFisher) containing 5% FBS (TMS-013-B; MilliporeSigma) was added to the cortical mixture to deactivate the papain and subsequently triturated. […] Isolated cortical neurons were plated onto poly-D-lysine coated 384-well plates at 2 × 10^4 cell/well for screening and dose-response assays, or 6-well plates at 1 × 10^6 cell/well for molecular and biochemical assays (western blot, ASO-dependent knock-down, and quantitative RT-PCR).

UBE3A protein = assay: western blot of UBE3A protein in Ube3a m-/p+ primary neurons; format: cell-based, mouse; details: 72 h at DIV7, 0.3 µM topotecan, 1 µM (S)-PHA533533, 0.1 µM 3, 0.3 µM (±)-4
Protocol: 2’ MOE gapmer antisense oligonucleotides (ASOs) designed to target mouse Cdk2 sequence […], Cdk5 sequence […], Top1 sequence […], and scrambled […] sequence as a negative control (Integrated DNA Technologies) were formulated in water and added to cultured cortical neurons grown on 6-well plates at DIV5 at a final concentration of 10 μM. Neurons were further cultured and treated at DIV7 with vehicle (0.1% DMSO) or the indicated compounds for 72 h. For western blot analysis, neurons were washed once with PBS and then lysed using RIPA buffer (50 mM Tris-HCl pH 8.0, 150 mM NaCl, 1% NP−40, 0.5% Na-deoxycholate, 0.5% SDS) and protease inhibitor cocktail (P8340, MilliporeSigma) on ice.

TOP1 = molecular target: T1, TOP1 (Homo sapiens, UniProt P11387); assay: TOP1-mediated DNA relaxation assay; format: biochemical; details: 3 μM topotecan; increasing concentrations of (S)- and (R)-PHA533533; vs DMSO
T1 construct: purchased TopoGEN
T1 sequence (P11387 1-765): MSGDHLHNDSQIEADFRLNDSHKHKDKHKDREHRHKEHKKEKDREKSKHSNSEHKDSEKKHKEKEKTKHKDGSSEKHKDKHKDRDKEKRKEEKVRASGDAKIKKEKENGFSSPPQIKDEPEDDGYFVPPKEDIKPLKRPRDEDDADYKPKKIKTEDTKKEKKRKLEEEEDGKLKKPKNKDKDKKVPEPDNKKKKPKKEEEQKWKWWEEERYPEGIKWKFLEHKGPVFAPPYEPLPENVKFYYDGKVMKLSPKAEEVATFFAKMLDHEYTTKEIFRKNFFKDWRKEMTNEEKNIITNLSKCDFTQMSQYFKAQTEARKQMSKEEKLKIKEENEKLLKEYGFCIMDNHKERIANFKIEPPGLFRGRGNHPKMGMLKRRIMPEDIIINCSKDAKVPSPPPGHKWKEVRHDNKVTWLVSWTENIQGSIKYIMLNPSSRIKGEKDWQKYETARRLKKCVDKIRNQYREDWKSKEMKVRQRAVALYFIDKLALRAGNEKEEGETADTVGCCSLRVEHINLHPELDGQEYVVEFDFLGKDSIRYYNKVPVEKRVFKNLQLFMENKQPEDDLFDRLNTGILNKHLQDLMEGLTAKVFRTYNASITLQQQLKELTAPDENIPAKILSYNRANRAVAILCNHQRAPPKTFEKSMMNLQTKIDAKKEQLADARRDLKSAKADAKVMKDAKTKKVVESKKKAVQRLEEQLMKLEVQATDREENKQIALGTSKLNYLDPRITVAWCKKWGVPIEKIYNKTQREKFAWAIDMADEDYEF
Excerpt: […]. […] […]. […] […]. […] […].
The Pfizer chemogenetic library and PHA533533 derivatives were provided by the Compound Transfer Program (CTP) at Pfizer. Topotecan hydrochloride salt was purchased from Cayman Chemicals (Item No. 14129). […] […]. The Human Topoisomerase I Assay Kit was purchased from TopoGEN and performed according to the manufacturer’s protocols.

Structure (SMILES) | Emax (paternal UBE3A-YFP) [%] | EC50 (paternal UBE3A-YFP) [nM] | capability to unsilence paternal Ube3a (analog test) (paternal UBE3A-YFP) | CC50 at 72 h [1] [nM] | relative quantity of Ube3a-ATS vs DMSO (Ube3a-ATS) | UBE3A protein levels vs DMSO (UBE3A protein) | paternal UBE3A-YFP immunofluorescent signal (paternal UBE3A-YFP) | inhibition of TOP1 catalytic activity to relax supercoiled DNA (TOP1) | relative quantity of Ube3a-ATS vs DMSO (Ube3a-ATS; listed as compound 2)
CC(C(=O)Nc1cc(C2CC2)[nH]n1)c1ccc(N2CCCC2)cc1 (racemic) [Compound (±)-4] | 65.7 ± 15.4 | 260 ± 100 | could unsilence paternal Ube3a | 1460 ± 240 | downregulated | significantly increased | – | – | –
C[C@@H](C(=O)Nc1cc(C2CC2)[nH]n1)c1ccc(N2CCCC2=O)cc1 [(R)-PHA533533] | – | – | – | – | – | – | minimal UBE3A-YFP immunofluorescent signal | had no effect on the TOP1 activity | –
O=C(Cc1ccc2ccccc2c1)Nc1cc(C2CC2)[nH]n1 [Compound 2] | 71.4 ± 7.34 | 140 ± 20 | could unsilence paternal Ube3a | 570 ± 90 | downregulated | – | – | – | did not reach statistical significance
O=C(Cc1ccc(-c2ccccc2)cc1)Nc1cc(C2CC2)[nH]n1 [Compound 3] | 43.5 ± 8.24 | 100 ± 10 | could unsilence paternal Ube3a | 300 ± 30 | downregulated | significantly increased | – | – | –
CC(C(=O)Nc1cc(C2CC2)[nH]n1)c1ccc(N2CCC(O)C2=O)cc1 [Compound (S,R)-5] | 58.3 ± 9.24 | 5300 ± 370 | could unsilence paternal Ube3a | 12800 ± 780 | downregulated | – | – | – | –
